molecular target: T1, full length human recombinant glucocorticoid receptor (Homo sapiens, UniProt P04150); experiment: Glucocorticoid Receptor Binding Assay (fluorescence polarization competitor assay, Fluormone GS Far Red tracer)
T1 construct: partially purified full length human recombinant glucocorticoid receptor; purchased Panvera/Invitrogen PV4302
T1 sequence (P04150 1-777): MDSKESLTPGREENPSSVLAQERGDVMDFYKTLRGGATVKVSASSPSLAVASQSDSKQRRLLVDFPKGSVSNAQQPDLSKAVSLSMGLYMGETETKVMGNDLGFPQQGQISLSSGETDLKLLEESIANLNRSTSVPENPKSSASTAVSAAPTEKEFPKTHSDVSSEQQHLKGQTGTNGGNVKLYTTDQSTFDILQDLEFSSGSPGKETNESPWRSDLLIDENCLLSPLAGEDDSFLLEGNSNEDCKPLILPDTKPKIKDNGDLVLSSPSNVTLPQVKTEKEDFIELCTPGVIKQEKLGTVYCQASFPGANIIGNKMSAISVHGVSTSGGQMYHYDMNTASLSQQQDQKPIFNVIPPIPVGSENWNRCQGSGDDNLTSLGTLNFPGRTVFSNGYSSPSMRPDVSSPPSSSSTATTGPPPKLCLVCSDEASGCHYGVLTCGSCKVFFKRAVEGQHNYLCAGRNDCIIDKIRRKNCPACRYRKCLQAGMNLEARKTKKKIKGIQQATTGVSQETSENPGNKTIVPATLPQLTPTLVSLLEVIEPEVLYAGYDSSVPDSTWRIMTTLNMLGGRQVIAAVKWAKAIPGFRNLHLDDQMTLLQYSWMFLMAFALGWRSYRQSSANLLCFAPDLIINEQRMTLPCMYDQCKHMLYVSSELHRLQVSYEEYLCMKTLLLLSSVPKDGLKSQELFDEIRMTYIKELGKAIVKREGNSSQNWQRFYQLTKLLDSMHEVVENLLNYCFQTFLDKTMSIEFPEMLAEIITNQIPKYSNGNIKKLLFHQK
How it was run: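 Serially diluted compounds competed with the tight-binding far-red fluorescent ligand for recombinant full-length human glucocorticoid receptor plus GR-stabilizing peptide (screening buffer pH 7.4; 3 h, 22 °C, dark). Polarization (610-660 nm) gave IC50 via sigmoidal dose-response fits, and Ki was derived by Cheng-Prusoff from tracer concentration and Kd.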

COC(=O)c1ccc(Oc2ccc([C@@H](C)[C@@](O)(c3ccc(=O)n(C)c3)C(F)(F)F)c(Cl)c2)cc1Cl (stereo in doubt) [Example 153, 2-Chloro-4-{3-chloro-4-[3,3,3-trifluoro-2-hydroxy-1-methyl-2-(1-methyl-6-oxo-1,6-dihydro-pyridin-3-yl)-propyl]-phenoxy}-benzoic acid methyl ester] and C[C@H](c1ccc(Oc2ccc(C(=O)O)c(Cl)c2)cc1Cl)[C@@](O)(c1ccc(=O)n(C)c1)C(F)(F)F (stereo in doubt) [Example 154, 2-Chloro-4-{3-chloro-4-[3,3,3-trifluoro-2-hydroxy-1-methyl-2-(1-methyl-6-oxo-1,6-dihydro-pyridin-3-yl)-propyl]-phenoxy}-benzoic acid] are within 1.5-fold of each other in Ki: 4.9 nM for the first, 6.3 nM for the second.

C[C@H](c1ccc(Oc2ccc(C(=O)O)c(F)c2)cc1Cl)[C@@](O)(c1ccc(=O)n(C)c1)C(F)(F)F (stereo in doubt) [Example 155, 4-{3-Chloro-4-[3,3,3-trifluoro-2-hydroxy-1-methyl-2-(1-methyl-6-oxo-1,6-dihydro-pyridin-3-yl)-propyl]-phenoxy}-2-fluoro-benzoic acid] and C[C@@H](c1cc(Oc2ccc(F)c(C(=O)O)c2)ccc1Cl)[C@](O)(c1ccc(=O)n(C)c1)C(F)(F)F (stereo in doubt) [Example 194, 5-{4-Chloro-3-[3,3,3-trifluoro-2-hydroxy-1-methyl-2-(1-methyl-6-oxo-1,6-dihydro-pyridin-3-yl)-propyl]-phenoxy}-2-fluoro-benzoic acid] are within 1.5-fold of each other in Ki: 46.2 nM for the first, 32.3 nM for the second.

First: C[C@H](c1ccc(Oc2ccc(CC(=O)O)cc2)cc1Cl)[C@@](O)(c1ccc(=O)n(C)c1)C(F)(F)F (stereo in doubt) [Example 158, (4-{3-Chloro-4-[3,3,3-trifluoro-2-hydroxy-1-methyl-2-(1-methyl-6-oxo-1,6-dihydro-pyridin-3-yl)-propyl]-phenoxy}-phenyl)-acetic acid]
Second: C[C@H](c1ccc(Oc2ccc(F)c(OCC(=O)O)c2)cc1Cl)[C@@](O)(c1ccc(=O)n(C)c1)C(F)(F)F (stereo in doubt) [Example 162, (5-{3-Chloro-4-[3,3,3-trifluoro-2-hydroxy-1-methyl-2-(1-methyl-6-oxo-1,6-dihydro-pyridin-3-yl)-propyl]-phenoxy}-2-fluoro-phenoxy)-acetic acid]
The Ki of the first is 12-fold higher: 7.1 nM for the first, 0.6 nM for the second. The second binds more tightly here.

Compared with CCOC(=O)COc1cc(Oc2ccc([C@@H](C)[C@@](O)(c3ccc(=O)n(C)c3)C(F)(F)F)c(Cl)c2)ccc1F (stereo in doubt) [Example 161, (5-{3-Chloro-4-[3,3,3-trifluoro-2-hydroxy-1-methyl-2-(1-methyl-6-oxo-1,6-dihydro-pyridin-3-yl)-propyl]-phenoxy}-2-fluoro-phenoxy)-acetic acid ethyl ester], CCOC(=O)c1cc(Oc2ccc(Cl)c([C@H](C)[C@](O)(c3ccc(=O)n(C)c3)C(F)(F)F)c2)ccc1F (stereo in doubt) [Example 193, 5-{4-Chloro-3-[3,3,3-trifluoro-2-hydroxy-1-methyl-2-(1-methyl-6-oxo-1,6-dihydro-pyridin-3-yl)-propyl]-phenoxy}-2-fluoro-benzoic acid ethyl ester] is 3.3-fold higher in Ki: 3.1 nM for the first, 10.3 nM for the second. The first binds more tightly here.

C[C@H](c1ccc(Oc2cc(C(F)(F)F)c(C(=O)O)cn2)cc1Cl)[C@@](O)(c1ccc(=O)n(C)c1)C(F)(F)F (stereo in doubt) [Example 164, 6-{3-Chloro-4-[3,3,3-trifluoro-2-hydroxy-1-methyl-2-(1-methyl-6-oxo-1,6-dihydro-pyridin-3-yl)-propyl]-phenoxy}-4-trifluoromethyl-nicotinic acid] and C[C@@H](c1cc(Oc2ccc(C(=O)O)c(Cl)c2)ccc1Cl)[C@](O)(c1ccc(=O)n(C)c1)C(F)(F)F (stereo in doubt) [Example 190, 2-Chloro-4-{4-chloro-3-[3,3,3-trifluoro-2-hydroxy-1-methyl-2-(1-methyl-6-oxo-1,6-dihydro-pyridin-3-yl)-propyl]-phenoxy}-benzoic acid] are within 1.5-fold of each other in Ki: 40.2 nM for the first, 51.4 nM for the second.

First: C[C@@H](c1ccc(-c2ccc(C(=O)O)c(Cl)c2)cc1Cl)[C@](O)(c1ccc(=O)n(C)c1)C(F)(F)F (stereo in doubt) [Example 169, 3,3′-Dichloro-4′-[3,3,3-trifluoro-2-hydroxy-1-methyl-2-(1-methyl-6-oxo-1,6-dihydro-pyridin-3-yl)-propyl]-biphenyl-4-carboxylic acid]
Second: C[C@@H](c1ccc(-c2ccc(Cl)c(C(=O)O)c2)cc1Cl)[C@](O)(c1ccc(=O)n(C)c1)C(F)(F)F (stereo in doubt) [Example 170, 4,3′-Dichloro-4′-[3,3,3-trifluoro-2-hydroxy-1-methyl-2-(1-methyl-6-oxo-1,6-dihydro-pyridin-3-yl)-propyl]-biphenyl-3-carboxylic acid]
The Ki of the first is 2.7-fold lower: 18.1 nM for the first, 49.7 nM for the second.

Going from CCOC(=O)c1cc(-c2ccc([C@H](C)[C@](O)(c3ccc(=O)n(C)c3)C(F)(F)F)c(Cl)c2)ccc1F (stereo in doubt) [Example 172, 3′-Chloro-4-fluoro-4′-[3,3,3-trifluoro-2-hydroxy-1-methyl-2-(1-methyl-6-oxo-1,6-dihydro-pyridin-3-yl)-propyl]-biphenyl-3-carboxylic acid ethyl ester] to CCn1cc([C@@](O)([C@@H](C)c2ccc(-c3ccc(F)c(C(=O)O)c3)cc2Cl)C(F)(F)F)ccc1=O (stereo in doubt) [Example 184, 3′-Chloro-4′-[2-(1-ethyl-6-oxo-1,6-dihydro-pyridin-3-yl)-3,3,3-trifluoro-2-hydroxy-1-methyl-propyl]-4-fluoro-biphenyl-3-carboxylic acid], the Ki rises from 3.8 nM to 10.4 nM (2.7-fold).

COC(=O)c1ccc(-c2ccc([C@H](C)[C@](O)(c3ccc(=O)n(C)c3)C(F)(F)F)c(Cl)c2)cc1OC (stereo in doubt) [Example 173, 3′-Chloro-3-methoxy-4′-[3,3,3-trifluoro-2-hydroxy-1-methyl-2-(1-methyl-6-oxo-1,6-dihydro-pyridin-3-yl)-propyl]-biphenyl-4-carboxylic acid methyl ester] and CCn1cc([C@@](O)([C@@H](C)c2ccc(-c3ccc(C(=O)OC)c(OC)c3)cc2Cl)C(F)(F)F)ccc1=O (stereo in doubt) [Example 187, 3′-Chloro-4′-[2-(1-ethyl-6-oxo-1,6-dihydro-pyridin-3-yl)-3,3,3-trifluoro-2-hydroxy-1-methyl-propyl]-3-methoxy-biphenyl-4-carboxylic acid methyl ester] are within 1.5-fold of each other in Ki: 7.3 nM for the first, 7.4 nM for the second.

COc1cc(-c2ccc([C@H](C)[C@](O)(c3ccc(=O)n(C)c3)C(F)(F)F)c(Cl)c2)ccc1C(=O)O (stereo in doubt) [Example 174, 3′-Chloro-3-methoxy-4′-[3,3,3-trifluoro-2-hydroxy-1-methyl-2-(1-methyl-6-oxo-1,6-dihydro-pyridin-3-yl)-propyl]-biphenyl-4-carboxylic acid] and CCn1cc([C@@](O)([C@@H](C)c2ccc(-c3ccc(C(=O)O)c(OC)c3)cc2Cl)C(F)(F)F)ccc1=O (stereo in doubt) [Example 188, 3′-Chloro-4′-[2-(1-ethyl-6-oxo-1,6-dihydro-pyridin-3-yl)-3,3,3-trifluoro-2-hydroxy-1-methyl-propyl]-3-methoxy-biphenyl-4-carboxylic acid] are within 1.5-fold of each other in Ki: 97.3 nM for the first, 98.7 nM for the second.

COC(=O)c1ccc(-c2ccc([C@H](C)[C@](O)(c3ccc(OC)nc3)C(F)(F)F)c(Cl)c2)cc1F (stereo in doubt) [Example 176, 3′-Chloro-3-fluoro-4′-[3,3,3-trifluoro-2-hydroxy-2-(6-methoxy-pyridin-3-yl)-1-methyl-propyl]-biphenyl-4-carboxylic acid methyl ester] and COC(=O)c1ccc(-c2ccc([C@H](C)[C@](O)(c3ccc(OC)nc3)C(F)(F)F)c(Cl)c2)cc1Cl (stereo in doubt) [Example 178, 3,3′-Dichloro-4′-[3,3,3-trifluoro-2-hydroxy-2-(6-methoxy-pyridin-3-yl)-1-methyl-propyl]-biphenyl-4-carboxylic acid methyl ester] are within 1.5-fold of each other in Ki: 93.5 nM for the first, 72.1 nM for the second.

Compared with CCOC(=O)c1cc(-c2ccc([C@H](C)[C@](O)(c3ccc(OC)nc3)C(F)(F)F)c(Cl)c2)ccc1Cl (stereo in doubt) [Example 180, 4,3′-Dichloro-4′-[3,3,3-trifluoro-2-hydroxy-2-(6-methoxy-pyridin-3-yl)-1-methyl-propyl]-biphenyl-3-carboxylic acid ethyl ester], CCn1cc([C@@](O)([C@@H](C)c2ccc(-c3ccc(C(=O)OC)c(F)c3)cc2Cl)C(F)(F)F)ccc1=O (stereo in doubt) [Example 185, 3′-Chloro-4′-[2-(1-ethyl-6-oxo-1,6-dihydropyridin-3-yl)-3,3,3-trifluoro-2-hydroxy-1-methyl-propyl]-3-fluoro-biphenyl-4-carboxylic acid methyl ester] is 3.2-fold lower in Ki: 38.4 nM for the first, 12.1 nM for the second.
